Data from ChEMBL document CHEMBL1201862, “PubChem BioAssay data set” (2004).
The source made the active and inactive calls.

What was measured:
[1] = target: T1, Neuropeptide Y receptor type 1 (Homo sapiens, UniProt P25929); format: functional;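 further: HEK293 cells with a CNG channel challenged with NPY then isoproterenol; potency as antagonist that reverses NPY suppression of cAMP signal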
T1 sequence (P25929 whole entry): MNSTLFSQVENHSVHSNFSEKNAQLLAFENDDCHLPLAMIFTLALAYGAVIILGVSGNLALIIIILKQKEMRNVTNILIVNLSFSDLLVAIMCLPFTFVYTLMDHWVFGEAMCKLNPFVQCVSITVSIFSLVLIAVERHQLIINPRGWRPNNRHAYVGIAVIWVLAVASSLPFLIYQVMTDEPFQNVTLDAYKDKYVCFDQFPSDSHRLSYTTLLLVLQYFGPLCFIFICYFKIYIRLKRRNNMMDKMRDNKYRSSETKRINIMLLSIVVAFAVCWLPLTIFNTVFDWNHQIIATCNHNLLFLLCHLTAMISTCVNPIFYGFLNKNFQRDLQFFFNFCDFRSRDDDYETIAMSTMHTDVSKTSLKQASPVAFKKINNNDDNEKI

[2] = target: T2, Neuropeptide Y receptor type 2 (Homo sapiens, UniProt P49146); format: functional, cell-based;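 further: HEK293 cells expressing the receptor and a CNG channel; stimulus was NPY near EC95 followed by isoproterenol to raise cAMP; antagonist potency measured as restoring cAMP signal that NPY suppresses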
T2 sequence (P49146 whole entry): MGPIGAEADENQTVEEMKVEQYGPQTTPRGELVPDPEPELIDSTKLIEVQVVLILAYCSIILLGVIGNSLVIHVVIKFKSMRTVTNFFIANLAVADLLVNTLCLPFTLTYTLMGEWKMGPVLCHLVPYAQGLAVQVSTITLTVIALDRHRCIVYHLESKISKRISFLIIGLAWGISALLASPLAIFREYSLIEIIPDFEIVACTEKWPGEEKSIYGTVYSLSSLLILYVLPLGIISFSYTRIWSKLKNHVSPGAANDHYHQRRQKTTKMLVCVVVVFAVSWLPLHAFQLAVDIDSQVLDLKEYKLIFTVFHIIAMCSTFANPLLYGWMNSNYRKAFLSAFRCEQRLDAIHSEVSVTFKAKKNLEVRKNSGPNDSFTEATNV

Melanocortin receptor 4 = Melanocortin receptor 4 (Homo sapiens, UniProt P32245); test: inhibitors of MC4R cAMP signaling – cell-based, TR-FRET, biased antagonists, dose response (AID 602298); format: functional;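 further: antagonist potency against agonist-stimulated cAMP production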
[3] = cAMP pathway inhibition in counterscreen cell line – TR-FRET cAMP detection, counter-screen for MC4R biased antagonist project, dose response (AID 602305); format: functional, cell-based;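 further: U2OS cells stimulated with forskolin near its EC80 as the cAMP inducer; potency is for inhibition of forskolin-stimulated cAMP signaling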
[4] = target: T3, Mannose-6-phosphate isomerase (Homo sapiens, UniProt P34949); test: MPI enzyme activity inhibition – biochemical, fluorescence intensity, coupled assay, primary screen (AID 1209)
T3 sequence (P34949 whole entry): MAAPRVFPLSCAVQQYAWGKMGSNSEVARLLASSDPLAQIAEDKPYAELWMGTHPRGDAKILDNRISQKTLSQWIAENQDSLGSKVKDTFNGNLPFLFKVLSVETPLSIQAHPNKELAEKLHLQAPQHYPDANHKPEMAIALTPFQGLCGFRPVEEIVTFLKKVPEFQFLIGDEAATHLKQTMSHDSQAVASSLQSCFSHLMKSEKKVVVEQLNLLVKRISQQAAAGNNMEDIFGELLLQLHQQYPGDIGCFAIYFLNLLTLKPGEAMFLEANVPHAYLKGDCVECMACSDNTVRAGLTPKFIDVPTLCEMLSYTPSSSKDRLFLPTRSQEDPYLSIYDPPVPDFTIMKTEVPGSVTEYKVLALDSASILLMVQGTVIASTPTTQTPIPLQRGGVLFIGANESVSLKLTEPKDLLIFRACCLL

[5] = target: T3, Mannose-6-phosphate isomerase; test: MPI inhibition at elevated mannose 6-phosphate – biochemical, fluorescence intensity, high mannose 6-phosphate, primary screen (AID 1220)
[6] = target: T4, Histone-lysine N-methyltransferase NSD2 (Homo sapiens, UniProt O96028); format: biochemical
T4 sequence (O96028 whole entry): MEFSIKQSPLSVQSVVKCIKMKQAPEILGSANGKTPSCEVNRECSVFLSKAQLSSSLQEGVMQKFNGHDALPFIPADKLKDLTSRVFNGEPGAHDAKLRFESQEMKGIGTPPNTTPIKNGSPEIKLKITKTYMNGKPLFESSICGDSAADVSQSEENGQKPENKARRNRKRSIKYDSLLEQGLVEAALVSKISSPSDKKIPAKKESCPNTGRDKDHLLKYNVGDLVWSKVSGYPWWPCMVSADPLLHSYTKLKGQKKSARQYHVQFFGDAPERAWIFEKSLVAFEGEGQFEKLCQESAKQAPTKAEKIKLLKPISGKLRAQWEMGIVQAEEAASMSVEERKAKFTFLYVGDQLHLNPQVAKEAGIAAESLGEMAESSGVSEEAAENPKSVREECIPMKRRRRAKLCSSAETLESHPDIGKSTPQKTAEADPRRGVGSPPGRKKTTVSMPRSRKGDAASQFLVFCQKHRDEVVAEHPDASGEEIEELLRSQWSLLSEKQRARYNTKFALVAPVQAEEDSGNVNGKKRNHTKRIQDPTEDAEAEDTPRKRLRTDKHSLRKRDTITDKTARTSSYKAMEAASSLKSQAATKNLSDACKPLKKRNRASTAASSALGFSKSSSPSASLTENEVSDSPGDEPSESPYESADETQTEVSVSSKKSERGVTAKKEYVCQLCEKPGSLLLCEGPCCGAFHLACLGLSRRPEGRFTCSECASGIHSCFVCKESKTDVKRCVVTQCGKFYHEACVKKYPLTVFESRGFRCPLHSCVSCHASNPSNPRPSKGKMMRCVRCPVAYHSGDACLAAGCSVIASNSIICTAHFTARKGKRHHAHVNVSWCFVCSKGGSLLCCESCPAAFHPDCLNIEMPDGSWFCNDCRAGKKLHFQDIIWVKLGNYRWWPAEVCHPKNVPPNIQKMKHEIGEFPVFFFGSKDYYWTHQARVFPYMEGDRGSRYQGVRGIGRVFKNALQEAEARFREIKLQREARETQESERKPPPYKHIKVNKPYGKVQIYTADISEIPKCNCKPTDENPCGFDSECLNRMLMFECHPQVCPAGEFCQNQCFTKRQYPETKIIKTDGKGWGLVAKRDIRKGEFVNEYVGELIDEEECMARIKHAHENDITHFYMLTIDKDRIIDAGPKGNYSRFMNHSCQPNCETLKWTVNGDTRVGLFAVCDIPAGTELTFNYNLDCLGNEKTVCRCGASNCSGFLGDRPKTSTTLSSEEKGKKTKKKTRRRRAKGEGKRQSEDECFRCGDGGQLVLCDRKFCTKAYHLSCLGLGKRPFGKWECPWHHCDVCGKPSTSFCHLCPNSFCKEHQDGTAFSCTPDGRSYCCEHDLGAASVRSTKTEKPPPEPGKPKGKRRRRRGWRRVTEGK

[7] = A High Throughput Confirmatory Assay used to Identify Novel Compounds that Inhibit Mycobacterium Tuberculosis in the absence of Glycerol.; format: functional
Escherichia coli = test: microbe, parasite or virus in culture
cells [8] = format: functional, cell-based
cells [9] = format: functional, cell-based; remark: listed apart in the source
[10] = mitochondrial function rescue without frataxin homolog – Friedreich's ataxia, plus single-dose screen, dose response (AID 1465); format: functional;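 further: yeast depleted of Yfh1p frataxin homolog grown on glycerol needing respiration; WST-1 tetrazolium dye reduction as measure of cellular dehydrogenase metabolic activity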
Nonstructural protein 1 = Nonstructural protein 1 (Influenza A virus, UniProt Q194T2); format: functional, Influenza A virus (A/California/07/2009(H1N1))
Estrogen receptor = target: T5, Estrogen receptor (Homo sapiens, UniProt P03372); test: ERα coactivator recruitment enhancers – biochemical, TR-FRET, ERα LBD, dose response (AID 737)
T5 sequence (P03372 whole entry): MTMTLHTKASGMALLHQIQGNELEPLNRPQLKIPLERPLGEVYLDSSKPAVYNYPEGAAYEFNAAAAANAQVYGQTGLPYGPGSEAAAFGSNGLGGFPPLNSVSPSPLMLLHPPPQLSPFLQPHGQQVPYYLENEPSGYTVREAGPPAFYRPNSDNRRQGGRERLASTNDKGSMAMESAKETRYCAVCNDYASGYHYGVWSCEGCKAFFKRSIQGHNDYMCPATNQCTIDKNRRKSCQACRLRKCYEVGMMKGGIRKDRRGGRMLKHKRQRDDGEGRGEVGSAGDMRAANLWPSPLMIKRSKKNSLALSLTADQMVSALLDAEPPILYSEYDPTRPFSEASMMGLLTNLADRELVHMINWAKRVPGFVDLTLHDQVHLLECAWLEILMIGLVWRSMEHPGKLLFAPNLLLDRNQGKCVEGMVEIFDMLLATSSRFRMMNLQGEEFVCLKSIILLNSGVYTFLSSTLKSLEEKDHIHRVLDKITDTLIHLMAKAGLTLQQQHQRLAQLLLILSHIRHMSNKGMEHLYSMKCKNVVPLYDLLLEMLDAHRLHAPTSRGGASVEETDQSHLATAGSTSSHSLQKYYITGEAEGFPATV

NADPH oxidase 1 = NADPH oxidase 1 (Homo sapiens, UniProt Q9Y5S8); format: functional, cell-based;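 further: Cell-based assay with luminescence read-out, IC50 derived from inhibitor dose-response curves; intracellular ROS from endogenous NOX1 in intact HT29 colon cancer cells; potency of inhibitors that lower the ROS luminescence signal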
[11] = target: Induced myeloid leukemia cell differentiation protein Mcl-1 (Homo sapiens, UniProt Q07820); test: blockers of MCL1 binding to BIM peptide – biochemical, fluorescence polarization, BIM-BH3 peptide, 1536-well, dose response (AID 2217)
Bcl-2-like protein 1 = Bcl-2-like protein 1 (Homo sapiens, UniProt Q07817); test: blockers of BCLXL peptide binding – biochemical, fluorescence polarization, 1536-well, selectivity assay for MCL1 inhibitor project, dose response (AID 2218)
[12] = target: T6, Endoribonuclease toxin MazF (Escherichia coli K-12, UniProt P0AE70); test: activation of MazEF endoribonuclease cleavage – biochemical, fluorescence, single-stranded RNA substrate, uHTS hits, dose response (AID 588481); format: functional
T6 sequence (P0AE70 whole entry): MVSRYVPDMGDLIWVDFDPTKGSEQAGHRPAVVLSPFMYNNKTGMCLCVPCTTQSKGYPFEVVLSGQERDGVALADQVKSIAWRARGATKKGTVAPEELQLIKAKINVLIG

[13] = target: T6, Endoribonuclease toxin MazF; test: substrate-only fluorescence increase artefacts – biochemical, single-stranded RNase substrate, counter-screen for MazEF activator project, dose response (AID 588502); format: functional
Mucolipin-3 = Mucolipin-3 (Homo sapiens, UniProt Q8TDD5); test: Dose response cell-based high-throughput screening assay for agonists of the transient receptor potential channel ML3 (TRPML3). [Related pubchem assays: 1526, 1424, 1448 ]; format: functional
[14] = viability of PTEN-deleted HCT116 cells – cell-based, HCT116 PTEN knockout, dose response (AID 1047); format: functional;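 further: HCT116 colon tumor cells with PTEN knocked out; cells exposed to compound for 60 hours before readout; potency for loss of cell viability measured by luminescence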
[15] = viability of HCT116 lacking mutant beta-catenin – cell-based, human colon tumor, dose response (AID 1045); format: functional;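 further: HCT116 colon tumor cells with beta catenin knocked out; cells exposed to compound for 60 hours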
Ion channel NompC = Ion channel NompC (Danio rerio, UniProt Q7T1G6); test: Fluorescence counterscreen assay for TRPML3 agonists: dose response cell-based high-throughput screening assay to identify agonists of the transient receptor potential channel N1 (TRPN1). [Related pubchem assays: 1526, 1424, 1448 ]; format: functional
HEK293 [16] = test: inhibition of NOD1-driven NF-kB reporter – cell-based, luminescence, uHTS, primary screen (AID 1578); format: functional; conditions: Homo sapiens
HEK293 [17] = test: cells; format: functional, cell-based; conditions: Homo sapiens
HEK293 [18] = test: cells; format: functional, cell-based; conditions: Homo sapiens; remark: listed apart in the source
Bcl-2-like protein 10 = target: T7, Bcl-2-like protein 10 (Homo sapiens, UniProt Q9HD36); test: Concentration-response of Bcl-B inhibitors by biochemical FP with TR3 (AID 1243); format: functional
T7 sequence (Q9HD36 whole entry): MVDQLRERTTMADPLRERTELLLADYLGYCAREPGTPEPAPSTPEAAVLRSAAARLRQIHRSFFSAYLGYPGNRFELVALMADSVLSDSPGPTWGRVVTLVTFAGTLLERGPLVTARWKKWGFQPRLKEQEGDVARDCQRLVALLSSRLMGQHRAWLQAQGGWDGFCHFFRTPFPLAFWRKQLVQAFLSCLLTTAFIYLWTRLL

HEK293 [19] = test: NOD2 signaling inhibitors in MDP-stimulated cells, cell-based, uHTS, luminescence (AID 2001); format: functional; conditions: Homo sapiens

Chain of Ion channel NompC (Q7T1G6 whole entry): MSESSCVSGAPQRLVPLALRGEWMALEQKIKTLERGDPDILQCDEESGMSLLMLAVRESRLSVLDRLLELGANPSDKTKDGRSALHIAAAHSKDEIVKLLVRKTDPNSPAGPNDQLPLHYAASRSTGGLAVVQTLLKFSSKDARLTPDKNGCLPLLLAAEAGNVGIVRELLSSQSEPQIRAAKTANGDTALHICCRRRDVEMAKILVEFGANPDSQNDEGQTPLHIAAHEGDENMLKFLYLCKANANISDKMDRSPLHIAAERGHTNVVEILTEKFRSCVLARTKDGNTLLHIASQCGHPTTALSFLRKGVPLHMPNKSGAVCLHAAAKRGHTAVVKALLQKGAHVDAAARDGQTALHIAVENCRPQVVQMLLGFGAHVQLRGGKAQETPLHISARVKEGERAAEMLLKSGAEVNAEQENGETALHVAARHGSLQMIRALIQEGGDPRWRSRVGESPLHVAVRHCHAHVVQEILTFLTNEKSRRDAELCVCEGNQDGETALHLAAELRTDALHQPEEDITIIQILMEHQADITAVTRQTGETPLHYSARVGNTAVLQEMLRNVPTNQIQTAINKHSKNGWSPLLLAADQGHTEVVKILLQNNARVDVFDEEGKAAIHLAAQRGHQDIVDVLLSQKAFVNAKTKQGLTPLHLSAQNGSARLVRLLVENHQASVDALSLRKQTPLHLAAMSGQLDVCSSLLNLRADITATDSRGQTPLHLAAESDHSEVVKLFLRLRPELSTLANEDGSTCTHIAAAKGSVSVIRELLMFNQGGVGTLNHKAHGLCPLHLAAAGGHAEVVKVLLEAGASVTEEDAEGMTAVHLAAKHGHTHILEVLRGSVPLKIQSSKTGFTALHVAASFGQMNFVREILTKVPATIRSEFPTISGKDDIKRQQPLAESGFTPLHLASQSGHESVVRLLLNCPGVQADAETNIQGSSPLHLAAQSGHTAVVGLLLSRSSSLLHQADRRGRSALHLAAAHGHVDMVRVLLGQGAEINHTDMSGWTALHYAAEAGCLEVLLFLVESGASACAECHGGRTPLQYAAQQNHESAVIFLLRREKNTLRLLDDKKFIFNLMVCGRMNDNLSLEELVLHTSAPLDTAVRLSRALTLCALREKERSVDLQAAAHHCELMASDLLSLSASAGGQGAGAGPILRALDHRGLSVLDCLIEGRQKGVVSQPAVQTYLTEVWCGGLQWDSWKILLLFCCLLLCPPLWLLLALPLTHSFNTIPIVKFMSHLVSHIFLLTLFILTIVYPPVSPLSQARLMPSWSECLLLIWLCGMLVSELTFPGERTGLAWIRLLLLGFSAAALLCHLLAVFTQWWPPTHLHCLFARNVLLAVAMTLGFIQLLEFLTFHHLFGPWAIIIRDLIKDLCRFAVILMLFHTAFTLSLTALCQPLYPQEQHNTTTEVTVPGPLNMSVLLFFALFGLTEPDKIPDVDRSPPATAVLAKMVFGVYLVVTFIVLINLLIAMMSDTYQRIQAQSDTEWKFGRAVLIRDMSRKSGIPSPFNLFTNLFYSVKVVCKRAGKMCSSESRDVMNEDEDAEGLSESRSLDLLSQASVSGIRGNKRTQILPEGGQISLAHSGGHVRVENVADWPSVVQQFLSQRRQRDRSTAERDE
Chain of Melanocortin receptor 4 (P32245 whole entry): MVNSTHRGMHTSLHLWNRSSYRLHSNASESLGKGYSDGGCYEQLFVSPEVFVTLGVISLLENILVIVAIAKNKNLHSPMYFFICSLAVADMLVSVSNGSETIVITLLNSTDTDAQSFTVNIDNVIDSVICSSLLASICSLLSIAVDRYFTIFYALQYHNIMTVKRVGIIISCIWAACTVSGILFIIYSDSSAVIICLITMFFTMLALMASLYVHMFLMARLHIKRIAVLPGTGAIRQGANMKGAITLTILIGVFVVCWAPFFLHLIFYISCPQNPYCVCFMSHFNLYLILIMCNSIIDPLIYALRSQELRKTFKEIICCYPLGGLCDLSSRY
Chain of Bcl-2-like protein 1 (Q07817 whole entry): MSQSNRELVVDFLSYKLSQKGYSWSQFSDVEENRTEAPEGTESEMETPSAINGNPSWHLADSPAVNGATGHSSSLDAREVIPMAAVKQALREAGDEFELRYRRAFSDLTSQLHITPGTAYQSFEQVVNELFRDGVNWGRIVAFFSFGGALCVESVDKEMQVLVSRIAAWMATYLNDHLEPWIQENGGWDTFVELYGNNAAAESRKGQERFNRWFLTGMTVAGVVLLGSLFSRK
Chain of Mucolipin-3 (Q8TDD5 whole entry): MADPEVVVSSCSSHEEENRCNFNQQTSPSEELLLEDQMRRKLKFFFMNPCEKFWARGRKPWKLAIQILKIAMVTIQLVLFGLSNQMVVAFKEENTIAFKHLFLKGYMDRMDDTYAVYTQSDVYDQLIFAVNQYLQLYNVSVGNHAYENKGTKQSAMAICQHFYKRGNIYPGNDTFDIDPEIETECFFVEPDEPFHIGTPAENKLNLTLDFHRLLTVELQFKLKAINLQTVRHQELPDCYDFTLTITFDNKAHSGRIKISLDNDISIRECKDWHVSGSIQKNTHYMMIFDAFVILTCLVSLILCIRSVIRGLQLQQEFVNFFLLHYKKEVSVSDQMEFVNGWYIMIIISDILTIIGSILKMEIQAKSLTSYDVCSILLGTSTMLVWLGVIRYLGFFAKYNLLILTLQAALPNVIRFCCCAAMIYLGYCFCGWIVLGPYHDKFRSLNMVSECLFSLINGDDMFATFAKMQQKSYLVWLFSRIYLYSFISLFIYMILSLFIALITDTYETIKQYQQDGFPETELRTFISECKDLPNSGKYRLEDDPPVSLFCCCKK
Chain of Nonstructural protein 1 (Q194T2 whole entry, the tested form may be a part): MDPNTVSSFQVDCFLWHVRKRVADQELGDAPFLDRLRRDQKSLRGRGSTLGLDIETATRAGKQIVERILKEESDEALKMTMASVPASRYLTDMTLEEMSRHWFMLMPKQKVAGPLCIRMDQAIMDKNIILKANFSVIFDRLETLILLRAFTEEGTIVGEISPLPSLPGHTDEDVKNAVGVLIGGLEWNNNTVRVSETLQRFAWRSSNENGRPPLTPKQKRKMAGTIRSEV
Chain of Induced myeloid leukemia cell differentiation protein Mcl-1 (Q07820 whole entry): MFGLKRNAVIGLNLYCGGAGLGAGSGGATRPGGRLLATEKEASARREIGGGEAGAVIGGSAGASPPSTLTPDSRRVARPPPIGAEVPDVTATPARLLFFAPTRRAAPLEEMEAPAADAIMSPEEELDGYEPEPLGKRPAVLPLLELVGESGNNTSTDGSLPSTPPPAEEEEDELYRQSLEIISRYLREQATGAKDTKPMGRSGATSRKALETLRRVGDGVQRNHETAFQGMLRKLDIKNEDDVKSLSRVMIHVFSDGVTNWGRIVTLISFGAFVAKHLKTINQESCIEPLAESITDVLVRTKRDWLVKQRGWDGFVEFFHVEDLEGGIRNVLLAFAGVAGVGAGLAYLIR
Chain of NADPH oxidase 1 (Q9Y5S8 whole entry): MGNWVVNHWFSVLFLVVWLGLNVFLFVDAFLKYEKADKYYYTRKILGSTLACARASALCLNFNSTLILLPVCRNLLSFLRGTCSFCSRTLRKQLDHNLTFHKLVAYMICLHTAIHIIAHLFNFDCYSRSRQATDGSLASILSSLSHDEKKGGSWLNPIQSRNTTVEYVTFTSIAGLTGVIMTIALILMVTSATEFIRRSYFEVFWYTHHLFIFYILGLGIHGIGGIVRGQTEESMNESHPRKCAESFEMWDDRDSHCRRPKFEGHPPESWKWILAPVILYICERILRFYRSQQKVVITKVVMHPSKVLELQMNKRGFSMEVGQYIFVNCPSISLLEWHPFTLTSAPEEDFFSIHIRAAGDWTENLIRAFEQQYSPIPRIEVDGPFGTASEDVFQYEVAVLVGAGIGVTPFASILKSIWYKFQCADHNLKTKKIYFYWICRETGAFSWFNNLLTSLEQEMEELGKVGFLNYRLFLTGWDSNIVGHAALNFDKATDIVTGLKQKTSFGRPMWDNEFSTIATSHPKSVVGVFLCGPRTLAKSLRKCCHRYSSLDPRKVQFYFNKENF

Structure (SMILES): COC(=O)C1=C(C(=O)OC)SC2(S1)C(C(=O)OC)=C(C(=O)OC)SC1=C2c2cccc(C)c2NC1(C)C
- IC50 [1]: > 35 µM (not active)
- IC50 [2]: > 35 µM (not active)
- IC50 (Melanocortin receptor 4): 3.83 µM (active)
- IC50 [3]: > 64.6 µM (inactive)

Structure (SMILES): CN1c2cccc3cccc(c23)N(C)C1(C)C
- IC50 [4]: > 50 µM (not active)
- IC50 [5]: > 50 µM (not active)
- AC50 [6]: 11.4 µM (active)

Structure (SMILES): O=C1c2ccccc2CC1Sc1nnc(-c2ccncc2)o1 (stereo not drawn)
- IC50 [7]: > 100 µM (active)
- AC50 (Escherichia coli): 268 µM (active)

Structure (SMILES): COc1ccc(O)c(/C=N/NC(=S)Nc2cccc(S(=O)(=O)N(C)C)c2)c1
- EC50 (cells [8]): 10.8 µM (active)
- EC50 (cells [9]): > 350 µM (not active)
- EC50 [10]: > 100 µM (active)
- IC50 (Nonstructural protein 1): 8.98 µM (active)

Structure (SMILES): CSc1nnc2c(n1)OC(c1ccsc1)N(C(C)=O)c1ccccc1-2 (stereo not drawn)
- EC50 (Estrogen receptor): 22.6 µM (not active)

Structure (SMILES): Ic1ccc(-c2nc(-c3ccccc3)c(-c3ccccc3)[nH]2)cc1
- IC50 (NADPH oxidase 1): > 17 µM (not active)

Structure (SMILES): O=C(Oc1ccc2c(c1)O/C(=C\c1ccncc1)C2=O)c1ccccc1
- IC50 [11]: 11.7 µM (not active)
- IC50 (Bcl-2-like protein 1): 15.5 µM (not active)
- EC50 [12]: > 99 µM (inactive)
- EC50 [13]: 48 µM (inactive)

Structure (SMILES): CC(c1ccccc1)N(NC(=O)C(O)(c1ccccc1)c1ccccc1)C(=O)c1ccccc1 (stereo not drawn)
- EC50 (Mucolipin-3): > 29.9 µM (not active)
- EC50 [14]: 13.9 µM (active)
- EC50 [15]: 11.3 µM (active)
- EC50 (Ion channel NompC): > 29.9 µM (not active)

Structure (SMILES): Nc1[nH]nc2ncc3cc4ccccc4nc3c12
- EC50 (HEK293 [16]): 11.9 µM (active)
- IC50 (HEK293 [17]): 7.35 µM (active)
- IC50 (HEK293 [18]): > 20 µM (inactive)
- EC50 (Bcl-2-like protein 10): 3.74 µM (active)
- IC50 (HEK293 [19]): 8.23 µM (active)
